# Tested on: mouse liver
# Assay: APAP acute liver injury in mice, histology/IHC (TUNEL, PCNA)
# Assay type: in vivo
# Details: 300 mg/kg APAP i.p.
# Experimental: Mice were then used for isolation of primary hepatic cells for single cell RNA-sequencing or tissue harvest for further downstream analysis.
# A portion of liver tissue was fixed in 10% neutral buffered formalin for 48 hrs and further processed to obtain paraffin blocks and 5 μm thick sections. A portion of liver tissue was frozen in optimal cutting temperature (OCT) medium and used to obtain 10 μm fresh frozen sections.
# Histology was performed by the histology core at Beth Israel Deaconess Medical Center using standard procedures and automated workflow. Samples were processed and embedded following fixation in 10% neutral buffered formalin for 48 hrs. Samples were embedded in paraffin and sectioned at […]. Immunohistochemistry was performed on a Leica autostainer (Leica Biosystems) with enzyme treatment (1:1000) using standard protocols. The antibody used for assessment of cell proliferation was PCNA (Cell Signaling, Cat. 13110, 1:800), and cell death was ApopTag Peroxidase In Situ Apoptosis Detection Kit (Millipore, Cat. #S7100). Macrophages were stained using the anti-F4/80 (Cell Signaling, Cat. 70076, 1:500). Sections were then counterstained with hematoxylin, dehydrated, and film cover slipped. Four representative images were captured per slide. TUNEL-positive area, PCNA-positive cells, and F4/80-positive cells were measured and averaged across the four images for each sample using Fiji.
smiles,measurement,setting,value
"CC(=O)Nc1ccc(O)cc1 [APAP, acetaminophen]",histological analysis of liver,6 hrs post-APAP (A6),pericentral necrosis
same,histology of liver,24 hrs post-APAP (A24),persistent pericentral necrosis
same,total cell loss (liver cell mass) after APAP exposure,PH ~70%,~10%

# Reference: patent publication US20230053540A1, “TREATMENT OF LIVER INJURY” (Massachusetts Institute of Technology, priority 2019, published 2023)
